Where two headings read alike, the source gives them in different places. Some results are limits rather than exact numbers.

Data set [1] can be described thus: Stability of drug substance in pilot formulations (mass spectrometry). It counts as physicochemical. The source says:
Epothilones B and D were selected for encapsulation using triblock copolymers. […] This was not completely surprising as stability of epothilone B both in vitro and in vivo has been addressed in the literature. Epothilone D, the alkene derivative of epothilone B (also known as desoxy-epothilone B), was selected as the preferred drug substance for encapsulation due to increased stability in aqueous environments and pH fluctuations. A small library of triblock copolymers was used to conduct pilot formulations of epothilone D drug-loaded micelles, with the ultimate goal to select IT-147, the lead for development of an epothilone D encapsulated polymer micelle formulation. Five of the polymers chosen for the library contained stabilizing blocks comprised of hydroxamic acid functionalized poly(glutamic acid), and five of the polymers contained poly(cysteine) amino acid moieties as stabilizing blocks (Figure 2, Table 1). All polymers contained a 12 kDa PEG and a mixture of hydrophobic amino acids with D and L isomers in the core block. Pilot formulations were characterized by determining formulation efficiency, epothilone D drug loading (% w/w), average particle diameter, and retention of epothilone D following dialysis above and below the critical micelle concentration (Table 1).

For data set [2] the following is noted: intraperitoneal bolus, mouse tumor models; cited from earlier work.
A short description of data set [3]: Dialysis stability / pH-dependent release assay. It counts as physicochemical. The settings on record: 20 mg/mL, 3500 MWC, 10 mM phosphate buffer, 6 hours, room temperature; epothilone D retained. Here is the method:
Retention of the epothilone drug substance within the micelle formulation and the release profile of the drug substance over time, concentration, and pH were investigated using dialysis. Formulations were reconstituted at concentrations of 20 mg/mL and 0.2 mg/mL and placed in dialysis tubing with 3500 MWC pore size, which allows for retention of the micelles within the bag and release of the free drug from the bag into the reservoir. A volume of 3 mL of reconstituted formulation was placed into dialysis bags and then placed in a 300 mL reservoir containing 10 mM phosphate buffer and stirred for 6 hours at room temperature. HPLC assay for epothilone concentration of the formulation inside the bag was done before and after dialysis to determine the percentage of epothilone retained inside the dialysis bag over 6 hours. pH-dependent release was performed using 10 mM phosphate buffer at pH 3, 4, 5, 6, 7, 7.4, and 8 in the reservoirs during dialysis.

The nature of data set [4]: Plasma pharmacokinetic screening of pilot formulations in cannulated rat model. In kind it is in vivo, Sprague-Dawley rats. Conditions: rat plasma epothilone D, 10 mg/kg fast bolus jugular vein catheter. As to the method: The lead hydroxamic acid and cysteine containing formulations were compared to free epothilone D using a cannulated rat model by administering a 10 mg/kg dose by fast bolus to the jugular vein catheter. Female, Sprague-Dawley rats surgically modified with jugular vein catheters exteriorized posteriorly were purchased from Harlan Labs. Catheters were flushed and maintained with heparinized saline to ensure patency over the study period. The catheter port was used for both test article administration and blood collection. IT-147 pharmacokinetics at 20, 30, and 40 mg/kg were compared to epothilone D free drug at 20 mg/kg in the cannulated rat model. IT-147 was reconstituted in saline, while epothilone D free drug was reconstituted in cremaphor : ethanol : saline at 1 : 1 : 4 ratio. All in vivo studies were conducted under Institutional Guidelines. The Institutional Animal Care and Use Committee (IACUC), at the University of South Florida (USF), approved all rat in vivo study protocols. Animals were maintained and evaluated under pathogen-free conditions in accordance with USF College of Medicine IACUC standards of care. Approximately 300 μL of blood was collected into K2EDTA tubes containing PMSF (final concentration 2.5 mM) at time points of 1, 5, 15, and 60 minutes after test article administration. Samples were centrifuged at 2000 RPM for 5 minutes to isolate plasma. Plasma was aliquoted into microcentrifuge tubes and frozen at −20°C until processed for HPLC/UV analysis. […]
Stability of polymer micelles to dilution is one of the most important physiochemical characteristics for a formulation to be successful in vivo. […] The top two candidates from the pilot epothilone D formulations were evaluated, along with epothilone D free drug, using a cannulated rat model for pharmacokinetics. Selection of the lead epothilone D formulation, termed IT-147, was determined from the exposure of epothilone D to the plasma compartment by calculating the area under the concentration versus time curve (AUC) and maximum concentration (C max). […]

Data set [5] can be described thus: Pilot toxicokinetic dose range-finding study in cannulated rat model. In kind it is in vivo, Sprague-Dawley rats. The settings on record: for Dose limiting Toxicities / average weight loss: rat, 20 mg/kg; for Dose limiting Toxicities: w.l. = weight loss; for average weight loss: four days. Here is the method:
The lead hydroxamic acid and cysteine containing formulations were compared to free epothilone D using a cannulated rat model by administering a 10 mg/kg dose by fast bolus to the jugular vein catheter. Female, Sprague-Dawley rats surgically modified with jugular vein catheters exteriorized posteriorly were purchased from Harlan Labs. Catheters were flushed and maintained with heparinized saline to ensure patency over the study period. The catheter port was used for both test article administration and blood collection. IT-147 pharmacokinetics at 20, 30, and 40 mg/kg were compared to epothilone D free drug at 20 mg/kg in the cannulated rat model. IT-147 was reconstituted in saline, while epothilone D free drug was reconstituted in cremaphor : ethanol : saline at 1 : 1 : 4 ratio. All in vivo studies were conducted under Institutional Guidelines. The Institutional Animal Care and Use Committee (IACUC), at the University of South Florida (USF), approved all rat in vivo study protocols. Animals were maintained and evaluated under pathogen-free conditions in accordance with USF College of Medicine IACUC standards of care. Approximately 300 μL of blood was collected into K2EDTA tubes containing PMSF (final concentration 2.5 mM) at time points of 1, 5, 15, and 60 minutes after test article administration. Samples were centrifuged at 2000 RPM for 5 minutes to isolate plasma. Plasma was aliquoted into microcentrifuge tubes and frozen at −20°C until processed for HPLC/UV analysis. The following bioanalytical method is a modification of the procedure originally developed by Yuan et al.. Bioanalytical sample preparation was performed by liquid : liquid extraction. 50 μL of plasma sample was added to 600 μL of n-butyl chloride and vortexed for 10 minutes. Samples were centrifuged at 10,000 RPM for 10 minutes and the organic supernatant was aliquoted into microcentrifuge tubes. The n-butyl chloride supernatant was evaporated to dryness using a turbovap with nitrogen flow at room temperature, and 75 μL of a 40% acetonitrile in water solution was added to each tube. Samples were then vortexed for 5 minutes, aliquoted into HPLC vials, and processed using HPLC methodology as described in Section 2.3. Blank rat plasma containing PMSF was used to spike in epothilone D for standard curve preparation and processed as described for the plasma samples to determine concentration of epothilone D isolated from the samples collected from the cannulated rats. Noncompartmental analysis of the pharmacokinetic data was done using Phoenix WinNonlin version 6.3.
A pilot dose range-finding toxicokinetic study in a cannulated rat model was performed to support future full scale toxicokinetic studies of IT-147. Doses of IT-147 at 20, 30 and 40 mg/kg were compared to epothilone D free drug at 20 mg/kg (Table 3, Figure 7) followed by monitoring of animal weight change, gross signs of clinical toxicity, and limited plasma sampling for pharmacokinetic analysis (Table 4). IT-147 was reconstituted in saline while epothilone D free drug was administered in a cremaphor : ethanol : saline mixture. Test articles were given by fast bolus to the rat jugular vein, and blood was collected at time points of 1 minute, 5 minutes, 15 minutes, 1 hour, 2 hours, 4 hours, and 6 hours. […] Samples collected after the 1-hour time point were below the limit of quantitation for analysis. […] It was concluded that 20 mg/kg epothilone D free drug was above the maximum tolerated dose for these animals. […] Animals were monitored for one week following test article administration. […] Animals were monitored for four days after test article administration and were euthanized on the fourth day due to welfare concerns. […] It was concluded that 40 mg/kg epothilone D from IT-147 was above the maximum tolerated dose for these animals.

Where [6] appears, read: female, Sprague-Dawley, iv, rat plasma, 20 mg/kg epothilone D equivalent, fast bolus jugular vein.

Regarding `C/C(=C\c1csc(C)n1)[C@@H]1C[C@@H]2O[C@]2(C)CCC[C@H](C)[C@H](O)[C@@H](C)C(=O)C(C)(C)[C@@H](O)CC(=O)O1` [epothilone B], the “stability of the drug substance (epoxide ring) under formulation conditions” value in data set [1] is listed as “unstable to all experimental formulation conditions”. Also, in data set [2], the LD50 is recorded as 0.6 mg/kg and the maximum tolerated dose is 0.3 mg/kg.

Turning to `C/C1=C/C[C@@H](/C(C)=C/c2csc(C)n2)OC(=O)C[C@H](O)C(C)(C)C(=O)[C@H](C)[C@@H](O)[C@@H](C)CCC1` [epothilone D], the “Dialysis > CMC (% remaining)” value in data set [3] is 15%. Moreover, the concentration at 60 min in data set [4] (female, Sprague-Dawley, intravenous, 60 minutes, read-out: Clast) is 1600 ± 800 ng/mL. In addition, the Cmax in data set [4] (female, Sprague-Dawley, intravenous, at 1 minute) was found to be 19700 ± 4100 ng/mL; in data set [5] (setting [6]), 32200 ng/mL. Besides, the “AUC(0-1 h)” value in data set [4] amounted to 5.2 h∗µg/mL. The maximum tolerated dose is < 20 mg/kg in data set [5] (cannulated rat, single fast bolus, epothilone D equivalent, listed as epothilone D free drug) and 25 mg/kg in data set [2]. The clearance in data set [5] (setting [6]) was 40.2 mL/min/kg. The half-life in data set [5] (female, Sprague-Dawley, iv, terminal, rat plasma, 20 mg/kg epothilone D equivalent, fast bolus jugular vein) was 18 min. Besides, the “AUC(0–6 h)” value in data set [5] (rat plasma, 20 mg/kg epothilone D equivalent, fast bolus jugular vein) is 8.3 h∗µg/mL. Besides, the “Dose limiting Toxicities” value in data set [5] (20 mg/kg epothilone D equivalent, listed as Epo D) is >10% w.l. lethargy impaired gait orbital-bleeding; in data set [5] (20 mg/kg epothilone D equivalent, listed as Epothilone D free drug), “lethargy, impaired gait, orbital bleeding, porphyrin accumulation around the face, and disheveled fur”; in data set [5] (20 mg/kg epothilone D equivalent, listed as epothilone D free drug) it was “lethargy, gait impairment, and retro-orbital bleeding”. For the same molecule, the figures for the average weight loss in data set [5] (listed as Epothilone D free drug) and in data set [5] (listed as epothilone D free drug) were 12% and “greater than 10%”, respectively.
